The test system of data set [1] is MCF-7 tumors. Conditions: background statement; cited from earlier work.
Data set [2] deals with T1, CYP3A4 (Homo sapiens, UniProt P08684). Set-up: purchased Corning; host or cells: insect cells (microsomes). To be noted: inhibiting EET biosynthesis; background statement; cited from earlier work.
Target sequence in this assay (P08684 whole entry): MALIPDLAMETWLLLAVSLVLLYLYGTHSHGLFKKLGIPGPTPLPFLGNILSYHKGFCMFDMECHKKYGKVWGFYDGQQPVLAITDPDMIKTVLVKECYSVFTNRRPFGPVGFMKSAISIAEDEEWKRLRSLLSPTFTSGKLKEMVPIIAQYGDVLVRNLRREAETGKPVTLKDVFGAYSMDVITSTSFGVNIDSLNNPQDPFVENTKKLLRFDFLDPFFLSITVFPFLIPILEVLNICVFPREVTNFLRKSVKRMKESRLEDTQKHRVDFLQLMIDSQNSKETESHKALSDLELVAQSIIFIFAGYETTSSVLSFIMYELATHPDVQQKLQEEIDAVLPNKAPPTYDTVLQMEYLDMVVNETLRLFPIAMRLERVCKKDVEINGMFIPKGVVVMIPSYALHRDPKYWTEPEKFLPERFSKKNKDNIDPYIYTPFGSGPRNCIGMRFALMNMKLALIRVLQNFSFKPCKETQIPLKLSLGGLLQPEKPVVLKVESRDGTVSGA
For data set [3], the system named is MCF-7 cells. Description: TMRE mitochondrial membrane potential in MCF-7 cells. The class given is cell-based, human. Conditions: 10 μM, FIGS. 4A-4B. The method, then:
FIG. 4A. Effect of HCB on mitochondrial cross membrane potential Δψ in MCF-7 cells. MCF-7 cells were seeded at 20,000 cells/well into a clear bottom black 96 well microplate. After treatments were added for 2 hours (FCCP control for 10 minutes), TMRE (tetramethylrhodamine, ethyl ester, Ex/Em 549/575) was added to a final concentration of 400 nM and incubation continued for additional 30 minutes. Media was removed and cells washed twice with PBS and 100 ul of PBS was added in the end. TMRE fluorescence was then measured with a plate reader. Results are reported as mean fluorescence intensity±S.D. (n=8, * indicates statistically significant difference from the DMSO control).
FIG. 4B. Effect of DCB and HCB on mitochondrial trans-membrane potential Δψ in MCF-7 cells. […] TMRE fluorescence was then measured with a plate reader. Results are reported as mean fluorescence intensity±S.D. (n=8, * indicates statistically significant difference from the DMSO control).
Mitochondrial cross membrane potential (Δψ) alteration in MCF-7 cells were measured by monitoring Δψ sensitive TMRE fluorescence intensity. […] TMRE fluorescence was then measured with a plate reader. Results are reported as mean fluorescence intensity±S.D. (n=8, * indicates statistically significant difference from the DMSO control).
TMRE Δψm measurement. […] Fluorescence was read at Ex 549 nm/Em 575 nm. […]

Data set [4] has as its system MCF-7 cells. Description: Mitochondrial swelling, JC-1 confocal imaging in MCF-7 cells. Format: cell-based, human. Conditions: 10 μM, FIG. 5. The method, then: FIG. 5. Mitochondrial swelling by HCB treatment in MCF-7 cells. MCF-7 cells were seeded at 30,000 cells/well into a chambered coverslip and treated with HCB or DMSO for 2 hours. JC-1 potential sensitive dye was added to a final concentration of 20 μM and incubation continued for an additional half an hour. Cell was then washed and imaged with a confocal microscope. Active mitochondria are stained yellow to orange. White arrows indicate swollen mitochondria.

The subject of data set [5] is ERα. Description: Nuclear translocation of ERα in MCF-7 cells. Format: cell-based, human. To be noted: 10 μM, 2 hours, FIG. 6. As to the method: FIG. 6. […] A. representative images (Blue: nuclei; Red: ERα) from an experiment. B. Percentage change of nuclear ERα density normalized to nuclear DNA stained by Hoechst. MCF-7 cells (1.5×10^4 cells/well) were seeded on uSlide (8 wells, Ibidi, cat #80826) and cultured with complete culture medium (MEM medium with Earle's salts & L-glutamine) containing 10% FBS, 10 mM HEPES, 2 mM glutamine and 100 U penicillin and 100 U streptomycin for almost 70 hours. Then the cells were starved in serum, phenol red and antibiotics free MEM medium for almost 16 hours, followed with HCB (10 μM) or vehicle (0.01% DMSO) treatment for 2 hours in starvation medium. Then the cells were fixed, permeabilized and probed with monoclonal antibody against ERα (Abcam, Cat #16660, primary antibody) and Texas Red-conjugated goat anti rabbit IgG (Thermo Fisher Scientific, Cat #T-6391, secondary antibody). Nuclei were stained with Hoechst dye (Thermo Scientific, Cat #62249). The nuclear ERαas were analyzed with confocal microscopy. Four sites per well were selected randomly for collecting the image data. The density of fluorescence was measured by ImageJ. […] Intensities of lights in each ROI were measured in the blue channel (nuclei) and red (Texas red, estrogen receptor α) channel. […] Results normalized to control are expressed as means±S.D. (n=7). […]

The target in data set [6] is T1, CYP3A4. Briefly: CYP3A4 binding by Soret band spin shift analysis. To be noted: FIG. 16, read-out: estimated Kd. The method, then:
HCB induces a low-to-high spin transition in 3A4, meaning that it binds within the active site near the heme (FIG. 16).
A. HBB binds soluble CYP3A4 Δ3-22, dependent on the heme iron. The HBB binding spectrum is shown in red. Control spectra with dithionite reduction (blue) and CO adduct formation (green) are shown as well as untreated CYP3A4 Δ3-22 (black). B. HBB docked to truncated CYP3A4 Δ3-22 induces a low to high spin shift (left) with a Ks=74±7 μM (right). (FIG. 16)
Target sequence in this assay (P08684 with tags, fused parts or gaps): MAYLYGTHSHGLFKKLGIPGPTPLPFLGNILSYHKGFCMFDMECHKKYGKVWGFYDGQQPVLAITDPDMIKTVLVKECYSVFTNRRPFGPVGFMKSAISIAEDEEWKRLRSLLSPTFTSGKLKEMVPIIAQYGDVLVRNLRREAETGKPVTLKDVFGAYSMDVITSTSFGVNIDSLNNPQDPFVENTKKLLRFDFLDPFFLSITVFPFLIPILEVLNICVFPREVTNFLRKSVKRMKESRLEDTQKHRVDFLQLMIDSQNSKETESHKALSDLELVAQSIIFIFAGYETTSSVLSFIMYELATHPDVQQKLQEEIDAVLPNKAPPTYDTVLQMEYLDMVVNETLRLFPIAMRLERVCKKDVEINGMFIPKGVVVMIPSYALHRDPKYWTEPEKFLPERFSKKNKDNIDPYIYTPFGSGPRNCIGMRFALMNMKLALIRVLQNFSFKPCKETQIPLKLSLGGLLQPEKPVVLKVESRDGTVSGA

Entries after “also recorded” stand apart in the source; their conditions may differ.

As usually defined, the Kd is the constant that tells how readily two partners part at equilibrium.

Take `CCCCCCNC(=N)NC(=N)NCc1ccccc1` [HBB, N1-hexyl-N5-benzyl-biguanide]: the “growth of the MCF-7 ER+ mammary tumor model” value in data set [1] is recorded as “inhibits growth”. Further, the “fold more potent than metformin” value in data set [2] is recorded as 100 fold.
Consider `CCCCCCNC(=N)NC(=N)NCC12C3C4C5C3C1C5C42` (stereo not drawn) [HCB, Hexyl Cubanomethyl Biguanide], for which, in data set [3], the “effect on mitochondrial membrane potential” value is listed as “inhibited the mitochondrial membrane potential”. In addition, the “effect on mitochondrial tubule networks” value in data set [4] is listed as “caused loss of mitochondrial tubule networks”. For the same molecule, the “nuclear translocation of estrogen receptor (ER-α)” value in data set [5] is reported as “significantly decrease; also recorded: decreases nuclear translocation of ERα”. Besides, the Kd in data set [6] was 74 µM.
